{"source": "the supplement of paper PMC10307832", "experiment_in_all_cases": "relative viability (nuclei count vs DMSO), 5 days (fraction); higher = more cells survive", "key": {"A-427": {"system": "A-427", "outline": "(§1)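 One day after seeding in 1536-well plates, lung cancer cell lines were dosed by pin tool. Dosing was either single-drug or a fixed anchor-drug dose plus five library-drug doses (not always all listed) in √10 steps. After 5 days, nuclei were stained in one fix-and-stain step and counted on 4× images, and relative viability is the nuclei count of treated wells over that of vehicle wells, given as the median of duplicate plates.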"}, "ABC-1": {"system": "ABC-1", "outline": "as §1"}, "COR-L23": {"system": "COR-L23", "outline": "as §1"}, "EMC-BAC-2": {"system": "EMC-BAC-2", "outline": "as §1"}, "HARA": {"system": "HARA", "outline": "as §1"}, "HOP-62": {"system": "HOP-62", "outline": "as §1"}, "LK-2": {"system": "LK-2", "outline": "as §1"}, "LU99A": {"system": "LU99A", "outline": "as §1"}, "LXF-289": {"system": "LXF-289", "outline": "as §1"}, "NCI-H1792": {"system": "NCI-H1792", "outline": "as §1"}, "NCI-H1793": {"system": "NCI-H1793", "outline": "as §1"}, "NCI-H1944": {"system": "NCI-H1944", "outline": "as §1"}, "NCI-H1993": {"system": "NCI-H1993", "outline": "as §1"}, "NCI-H2009": {"system": "NCI-H2009", "outline": "as §1"}, "NCI-H2170": {"system": "NCI-H2170", "outline": "as §1"}, "NCI-H2228": {"system": "NCI-H2228", "outline": "as §1"}, "NCI-H3122": {"system": "NCI-H3122", "outline": "as §1"}, "NCI-H596": {"system": "NCI-H596", "outline": "as §1"}, "NCI-H727": {"system": "NCI-H727", "outline": "as §1"}, "PC-3 [JPC-3]": {"system": "PC-3 [JPC-3]", "outline": "as §1"}, "SK-LU-1": {"system": "SK-LU-1", "outline": "as §1"}, "SK-MES-1": {"system": "SK-MES-1", "outline": "as §1"}, "SW 1573": {"system": "SW 1573", "outline": "as §1"}, "SW 900": {"system": "SW 900", "outline": "as §1"}}}
{"smiles": "CC(C)Oc1cc(Nc2nc(N[C@@H](C)c3ccc(F)cn3)ncc2Cl)n[nH]1", "note": "[AZ23] + Cc1nc(Nc2ncc(C(=O)Nc3c(C)cccc3Cl)s2)cc(N2CCN(CCO)CC2)n1 [Dasatinib] (partner 0.075 µM)", "values": [{"measurement": "relative viability", "setting": "A-427; first compound 0.01 µM", "value": 0.701}, {"measurement": "relative viability", "setting": "A-427; first compound 0.03162 µM", "value": 0.862}, {"measurement": "relative viability", "setting": "A-427; first compound 0.3162 µM", "value": 0.684}, {"measurement": "relative viability", "setting": "ABC-1; first compound 0.01 µM", "value": 0.583}, {"measurement": "relative viability", "setting": "ABC-1; first compound 0.03162 µM", "value": 0.766}, {"measurement": "relative viability", "setting": "ABC-1; first compound 0.3162 µM", "value": 0.546}, {"measurement": "relative viability", "setting": "COR-L23; first compound 0.01 µM", "value": 0.485}, {"measurement": "relative viability", "setting": "COR-L23; first compound 0.03162 µM", "value": 0.645}, {"measurement": "relative viability", "setting": "COR-L23; first compound 0.3162 µM", "value": 0.504}, {"measurement": "relative viability", "setting": "EMC-BAC-2; first compound 0.01 µM", "value": 0.308}, {"measurement": "relative viability", "setting": "EMC-BAC-2; first compound 0.03162 µM", "value": 0.381}, {"measurement": "relative viability", "setting": "EMC-BAC-2; first compound 0.3162 µM", "value": 0.364}, {"measurement": "relative viability", "setting": "HARA; first compound 0.03162 µM", "value": 0.37}, {"measurement": "relative viability", "setting": "HARA; first compound 0.3162 µM", "value": 0.217}, {"measurement": "relative viability", "setting": "HOP-62; first compound 0.01 µM", "value": 0.702}, {"measurement": "relative viability", "setting": "HOP-62; first compound 0.03162 µM", "value": 0.684}, {"measurement": "relative viability", "setting": "HOP-62; first compound 0.3162 µM", "value": 0.631}, {"measurement": "relative viability", "setting": "LK-2; first compound 0.01 µM", "value": 0.262}, {"measurement": "relative viability", "setting": "LK-2; first compound 0.03162 µM", "value": 0.286}, {"measurement": "relative viability", "setting": "LK-2; first compound 0.3162 µM", "value": 0.335}, {"measurement": "relative viability", "setting": "LU99A; first compound 0.01 µM", "value": 0.623}, {"measurement": "relative viability", "setting": "LU99A; first compound 0.03162 µM", "value": 0.646}, {"measurement": "relative viability", "setting": "LU99A; first compound 0.3162 µM", "value": 0.369}, {"measurement": "relative viability", "setting": "LXF-289; first compound 0.01 µM", "value": 0.205}, {"measurement": "relative viability", "setting": "LXF-289; first compound 0.03162 µM", "value": 0.275}, {"measurement": "relative viability", "setting": "LXF-289; first compound 0.3162 µM", "value": 0.189}, {"measurement": "relative viability", "setting": "NCI-H1792; first compound 0.01 µM", "value": 0.804}, {"measurement": "relative viability", "setting": "NCI-H1792; first compound 0.03162 µM", "value": 1.16}, {"measurement": "relative viability", "setting": "NCI-H1792; first compound 0.3162 µM", "value": 0.672}, {"measurement": "relative viability", "setting": "NCI-H1793; first compound 0.01 µM", "value": 0.375}, {"measurement": "relative viability", "setting": "NCI-H1793; first compound 0.03162 µM", "value": 0.404}, {"measurement": "relative viability", "setting": "NCI-H1793; first compound 0.3162 µM", "value": 0.383}, {"measurement": "relative viability", "setting": "NCI-H1944; first compound 0.01 µM", "value": 0.198}, {"measurement": "relative viability", "setting": "NCI-H1944; first compound 0.03162 µM", "value": 0.246}, {"measurement": "relative viability", "setting": "NCI-H1944; first compound 0.3162 µM", "value": 0.208}, {"measurement": "relative viability", "setting": "NCI-H1993; first compound 0.01 µM", "value": 0.501}, {"measurement": "relative viability", "setting": "NCI-H1993; first compound 0.03162 µM", "value": 0.613}, {"measurement": "relative viability", "setting": "NCI-H1993; first compound 0.3162 µM", "value": 0.522}, {"measurement": "relative viability", "setting": "NCI-H2009; first compound 0.01 µM", "value": 0.278}, {"measurement": "relative viability", "setting": "NCI-H2009; first compound 0.03162 µM", "value": 0.341}, {"measurement": "relative viability", "setting": "NCI-H2009; first compound 0.3162 µM", "value": 0.279}, {"measurement": "relative viability", "setting": "NCI-H2170; first compound 0.01 µM", "value": 0.498}, {"measurement": "relative viability", "setting": "NCI-H2170; first compound 0.03162 µM", "value": 0.618}, {"measurement": "relative viability", "setting": "NCI-H2170; first compound 0.3162 µM", "value": 0.598}, {"measurement": "relative viability", "setting": "NCI-H2228; first compound 0.01 µM", "value": 0.571}, {"measurement": "relative viability", "setting": "NCI-H2228; first compound 0.03162 µM", "value": 0.504}, {"measurement": "relative viability", "setting": "NCI-H2228; first compound 0.3162 µM", "value": 0.445}, {"measurement": "relative viability", "setting": "NCI-H3122; first compound 0.01 µM", "value": 0.946}, {"measurement": "relative viability", "setting": "NCI-H3122; first compound 0.03162 µM", "value": 0.831}, {"measurement": "relative viability", "setting": "NCI-H3122; first compound 0.3162 µM", "value": 0.856}, {"measurement": "relative viability", "setting": "NCI-H596; first compound 0.01 µM", "value": 0.52}, {"measurement": "relative viability", "setting": "NCI-H596; first compound 0.03162 µM", "value": 0.616}, {"measurement": "relative viability", "setting": "NCI-H596; first compound 0.3162 µM", "value": 0.557}, {"measurement": "relative viability", "setting": "NCI-H727; first compound 0.01 µM", "value": 0.393}, {"measurement": "relative viability", "setting": "NCI-H727; first compound 0.03162 µM", "value": 0.402}, {"measurement": "relative viability", "setting": "NCI-H727; first compound 0.3162 µM", "value": 0.362}, {"measurement": "relative viability", "setting": "PC-3 [JPC-3]; first compound 0.01 µM", "value": 1.13}, {"measurement": "relative viability", "setting": "PC-3 [JPC-3]; first compound 0.03162 µM", "value": 1.08}, {"measurement": "relative viability", "setting": "PC-3 [JPC-3]; first compound 0.3162 µM", "value": 1.01}, {"measurement": "relative viability", "setting": "SK-LU-1; first compound 0.03162 µM", "value": 0.193}, {"measurement": "relative viability", "setting": "SK-LU-1; first compound 0.3162 µM", "value": 0.152}, {"measurement": "relative viability", "setting": "SK-MES-1; first compound 0.03162 µM", "value": 0.275}, {"measurement": "relative viability", "setting": "SK-MES-1; first compound 0.3162 µM", "value": 0.288}, {"measurement": "relative viability", "setting": "SW 1573; first compound 0.01 µM", "value": 0.747}, {"measurement": "relative viability", "setting": "SW 1573; first compound 0.03162 µM", "value": 0.605}, {"measurement": "relative viability", "setting": "SW 1573; first compound 0.3162 µM", "value": 0.52}, {"measurement": "relative viability", "setting": "SW 900; first compound 0.01 µM", "value": 0.385}, {"measurement": "relative viability", "setting": "SW 900; first compound 0.03162 µM", "value": 0.593}, {"measurement": "relative viability", "setting": "SW 900; first compound 0.3162 µM", "value": 0.541}]}
